*: point of attachment. AMC = Cc1cc(=O)oc2cc(N*)ccc12
Columns and labels:
SIRT6 = target: T1, SIRT6 (Homo sapiens, UniProt Q8N6T7); test: Sirtuin activity with fluorogenic lysyl substrates; type: biochemical; details: 50 μM substrate, 500 μM NAD^+
T1 construct: purchased BPS Bioscience 50017
Procedure: (§1) The Ac-Lys(Succ.)-AMC substrate was tested for activity with recombinant preparations of human HDACs 1-11, SIRTs 1-4, 6 and 7, a complex of HDAC3 with a fragment of the activating protein NCOR1 and with HeLa nuclear extract, a rich source of active HDACs in their native multiprotein complexes.
(§2) Enzyme and extract catalog products obtained from ENZO Life Sciences included: HDAC1 (Cat. # BML-SE456), HDAC2 (Cat. # BML-SE500), HDAC3 (Cat. # BML-SE507), HDAC3/NCOR1 Complex (Cat. # BML-SE515), HDAC6 (Cat. # BML-SE508), HDAC8 (Cat. # BML-SE145), HDAC10 (Cat. # BML-SE559), HDAC11 (Cat. # BML-SE560), SIRT1 (Cat. # BML-SE239), SIRT2 (Cat. # BML-SE251), SIRT3 (Cat. # BML-SE270), SIRT5 (Cat. # BML-SE555), HeLa Nuclear Extract (Cat. # BML-KI140), Trypsin (“Fluor de Lys Developer”, 80 mg/ml bovine trypsin in 1 mM HCl, Cat. # BML-KI105 or “Fluor de Lys Developer II”, 80 mg/ml bovine trypsin in 1 mM HCl, Cat. # BML-KI176). […] Enzymes obtained from BPS Bioscience, San Diego, Calif. included: human recombinants SIRT4 (Cat. #50015), SIRT6 (Cat. #50017), SIRT7 (Cat. #50018). HeLa whole cell extract was obtained from HeLa S3 cells (American Type Culture Collection) grown in a medium of MEM/10% fetal bovine serum (FBS) as follows: 1) 9×10^6 cells were suspended by trypsinization, followed by a phosphate buffered saline (PBS) rinse and addition of MEM/10% FBS (1.5 mL) to eliminate trypsin before transfer to a 15 mL conical tube; 2) cells were sedimented by a low speed centrifugation, gently resuspended in PBS and sedimented again and supernatant removed; 3) lysis was induced by resuspension in 0.8 mL 50 mM Tris/HCl, pH 8.0 with the non-denaturing detergent NP-40 (0.5%), placement on ice and brief vortexing every 5 min. for 30 min.; 4) 100 μl of a concentrated salt solution in the same buffer was added in order to bring the final buffer composition to 50 mM Tris/C1, pH 8.0, 137 mM NaCl, 2.7 mM KCl, 1 mM MgCl2, 0.5% NP-40; 5) particulate matter was cleared by centrifugation and the cleared lysate supernatant transferred to a 1.5 mL Eppendorf tube and stored on ice until use in activity assays.
(§3) Assays were performed at 37° C., according to the manufacturer's instructions for the “SIRT1 Fluorometric Drug Discovery Kit” from Enzo Life Sciences (ELS) (Cat. # BML-AK555), with exceptions described as follows. Where indicated in figures and text, SIRT1 enzyme was replaced with another enzyme or extract and the “Fluor de Lys-SIRT1 Substrate” (Ac-Arg-His-Lys-Lys(Ac)-AMC; ELS Cat. # BML-KI-177) was replaced with another acetylated, succinylated or trifluoroacetylated substrate.

HDAC6 = target: T2, HDAC6 (Homo sapiens, UniProt Q9UBN7); test: HDAC activity with fluorogenic lysyl substrates; type: biochemical; details: 50 μM substrate
T2 construct: purchased ENZO Life Sciences BML-SE508
Summary of the method: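 Each recombinant human enzyme or extract is incubated at 37 °C with an acetylated, succinylated or trifluoroacetylated lysyl-AMC substrate. Trypsin developer is then added. AMC fluorescence follows, per the SIRT1 fluorometric kit protocol.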

HDAC4 = test: HDAC activity with fluorogenic lysyl substrates; type: biochemical, human; details: 50 μM substrate
Procedure: as §1
Enzyme and extract catalog products obtained from ENZO Life Sciences included: HDAC1 (Cat. # BML-SE456), HDAC2 (Cat. # BML-SE500), HDAC3 (Cat. # BML-SE507), HDAC3/NCOR1 Complex (Cat. # BML-SE515), HDAC6 (Cat. # BML-SE508), HDAC8 (Cat. # BML-SE145), HDAC10 (Cat. # BML-SE559), HDAC11 (Cat. # BML-SE560), SIRT1 (Cat. # BML-SE239), SIRT2 (Cat. # BML-SE251), SIRT3 (Cat. # BML-SE270), SIRT5 (Cat. # BML-SE555), HeLa Nuclear Extract (Cat. # BML-KI140), Trypsin (“Fluor de Lys Developer”, 80 mg/ml bovine trypsin in 1 mM HCl, Cat. # BML-KI105 or “Fluor de Lys Developer II”, 80 mg/ml bovine trypsin in 1 mM HCl, Cat. # BML-KI176). […] Enzymes obtained from BPS Bioscience, San Diego, Calif. included: human recombinants SIRT4 (Cat. #50015), SIRT6 (Cat. #50017), SIRT7 (Cat. #50018). […]

HeLa cells = test: Intact HeLa cell desuccinylation/deacetylation assay; type: cell-based, human; details: 200 μM substrate in medium, four hours
Procedure: HeLa cells were cultured to 95% confluence in the wells of ½-volume 96-well plates. […] After the indicated time, cells were lysed with detergent and trypsin added to release AMC from desuccinylated or deacetylated substrate and then fluorescence read (Ex.360 nm/Em. 460 nm). For “0 hr.” samples, substrate, inhibitors, lysis buffer and trypsin were added simultaneously. Bars represent the mean of three determinations and the error bars the Standard Deviation from that mean. Statistically significant differences between the fluorescences of “4 hr.” and “0 hr.” samples (Student's t-test) are indicated by asterisks as follows: *,p<0.02; **, p<0.002.
An assay employing Ac-Lys(Ac.)-AMC to measure the HDAC and sirtuin deacetylase activity of intact cultured cells has been described (Howitz, K. T. et al. Nature 425, 191-196 (2003); Product Manual of Enzo Life Sciences Cat. # BML-AK-503, “HDAC Fluorimetric Cellular Activity Assay Kit”, Appendix F). Ac-Lys(Ac)-AMC is added to the culture medium, enters the cells and is deacetylated by HDACs and sirtuins in their native intracellular context. Measurement of the amount of Ac-Lys-AMC produced by intracellular deacetylation is then accomplished by detergent lysis of the cells and release of the AMC fluorophore by trypsin. We therefore investigated whether Ac-Lys(Succ.)-AMC could be used to measure intracellular desuccinylation activity, in a similar fashion, with cultured HeLa cells. […] These latter, deacetylation results are consistent with previous observations made with this assay system (see Howitz, K. T. et al. Nature 425, 191-196 (2003) and Appendix F).
Assays (FIG. 10) were performed according to the manufacturer's instructions for the ““HDAC Fluorometric Cellular Activity Assay Kit” (ELS Cat. # BML-AK503), with exceptions described as follows. Where indicated the “Fluor de Lys Substrate” (Ac-Lys(Ac.)-AMC; ELS Cat. # BML-KI104) was replaced with Ac-Lys(Succ.)-AMC (1).

SIRT2 = target: T3, SIRT2 (Homo sapiens, UniProt Q8IXJ6); test: Sirtuin activity with fluorogenic lysyl substrates; type: biochemical; details: 50 μM substrate, 500 μM NAD^+
T3 sequence (Q8IXJ6 1-389): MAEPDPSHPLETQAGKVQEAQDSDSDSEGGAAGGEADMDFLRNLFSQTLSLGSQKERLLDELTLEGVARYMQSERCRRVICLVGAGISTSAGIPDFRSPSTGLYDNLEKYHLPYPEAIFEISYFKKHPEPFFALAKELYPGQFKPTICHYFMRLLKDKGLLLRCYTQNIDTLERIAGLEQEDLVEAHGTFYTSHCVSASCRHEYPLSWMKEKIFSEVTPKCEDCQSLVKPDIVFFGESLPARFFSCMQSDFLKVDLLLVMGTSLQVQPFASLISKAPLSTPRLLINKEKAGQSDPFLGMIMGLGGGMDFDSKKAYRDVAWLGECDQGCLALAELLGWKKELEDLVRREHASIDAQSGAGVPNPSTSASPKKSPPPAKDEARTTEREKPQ
Procedure: as §1, §2, §3

SIRT4 = target: T4, SIRT4 (Homo sapiens, UniProt Q9Y6E7); test: Sirtuin activity with fluorogenic lysyl substrates; type: biochemical; details: 50 μM substrate, 500 μM NAD^+
T4 construct: purchased BPS Bioscience 50015
Procedure: as §1, §2, §3

T1 sequence (Q8N6T7 whole entry): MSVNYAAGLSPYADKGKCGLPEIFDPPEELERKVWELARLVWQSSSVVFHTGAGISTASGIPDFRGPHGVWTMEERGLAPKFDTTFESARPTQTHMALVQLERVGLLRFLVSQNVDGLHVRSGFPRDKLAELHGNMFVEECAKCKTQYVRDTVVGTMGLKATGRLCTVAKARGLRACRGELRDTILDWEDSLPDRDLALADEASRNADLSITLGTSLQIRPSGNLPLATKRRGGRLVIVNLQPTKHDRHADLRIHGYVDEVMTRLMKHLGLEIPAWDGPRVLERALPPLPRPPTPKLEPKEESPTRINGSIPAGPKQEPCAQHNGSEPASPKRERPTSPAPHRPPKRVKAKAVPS
T2 sequence (Q9UBN7 whole entry): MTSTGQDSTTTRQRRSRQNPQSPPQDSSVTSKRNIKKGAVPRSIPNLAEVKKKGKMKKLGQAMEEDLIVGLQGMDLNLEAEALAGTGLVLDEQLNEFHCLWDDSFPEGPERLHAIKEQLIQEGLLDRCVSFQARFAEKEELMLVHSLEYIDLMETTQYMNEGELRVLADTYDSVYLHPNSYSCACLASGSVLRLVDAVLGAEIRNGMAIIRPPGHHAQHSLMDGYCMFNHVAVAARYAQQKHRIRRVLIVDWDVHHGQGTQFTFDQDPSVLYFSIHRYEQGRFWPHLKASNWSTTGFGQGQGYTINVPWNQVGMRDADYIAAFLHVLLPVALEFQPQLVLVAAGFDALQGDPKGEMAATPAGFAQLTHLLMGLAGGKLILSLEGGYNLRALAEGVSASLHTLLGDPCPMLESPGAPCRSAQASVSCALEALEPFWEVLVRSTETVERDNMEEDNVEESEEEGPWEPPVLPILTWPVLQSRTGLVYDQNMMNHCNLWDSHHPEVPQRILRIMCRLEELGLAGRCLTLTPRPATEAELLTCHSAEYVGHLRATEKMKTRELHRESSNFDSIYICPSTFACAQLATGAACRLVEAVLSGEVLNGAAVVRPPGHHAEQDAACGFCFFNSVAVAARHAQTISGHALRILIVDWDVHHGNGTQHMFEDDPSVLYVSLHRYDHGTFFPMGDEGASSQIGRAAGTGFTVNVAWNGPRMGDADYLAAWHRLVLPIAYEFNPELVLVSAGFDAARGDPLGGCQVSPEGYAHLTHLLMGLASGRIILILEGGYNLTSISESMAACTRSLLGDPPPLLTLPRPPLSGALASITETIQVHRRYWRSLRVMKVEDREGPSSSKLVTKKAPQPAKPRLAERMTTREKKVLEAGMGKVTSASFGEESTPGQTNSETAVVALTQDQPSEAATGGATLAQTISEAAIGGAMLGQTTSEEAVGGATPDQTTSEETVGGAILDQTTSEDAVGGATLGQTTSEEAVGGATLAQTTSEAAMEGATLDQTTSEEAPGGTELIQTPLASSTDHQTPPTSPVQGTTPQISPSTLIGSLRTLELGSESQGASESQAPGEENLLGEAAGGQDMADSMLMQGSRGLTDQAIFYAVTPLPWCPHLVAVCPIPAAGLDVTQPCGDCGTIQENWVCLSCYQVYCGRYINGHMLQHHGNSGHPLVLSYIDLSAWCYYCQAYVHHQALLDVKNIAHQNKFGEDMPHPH
T4 sequence (Q9Y6E7 29-314): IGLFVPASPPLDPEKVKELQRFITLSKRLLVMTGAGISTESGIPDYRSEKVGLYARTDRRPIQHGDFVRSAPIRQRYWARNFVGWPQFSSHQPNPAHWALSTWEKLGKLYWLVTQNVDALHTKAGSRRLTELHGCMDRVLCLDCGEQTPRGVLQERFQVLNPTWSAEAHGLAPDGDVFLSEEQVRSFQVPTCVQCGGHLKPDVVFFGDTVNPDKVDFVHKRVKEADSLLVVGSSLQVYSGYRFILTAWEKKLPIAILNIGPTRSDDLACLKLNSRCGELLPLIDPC

Row | Molecule | Activity (SIRT6) | Activity (pmol/min/μg) (SIRT4) | Activity (pmol/min/μg) (SIRT6) | Activity (pmol/min/μg) (HDAC4) | Intracellular desuccinylation/deacetylation of substrate (HeLa cells) | also measured
1 | CC(=O)NCCCCC(NC(C)=O)C(=O)Nc1ccc2c(C)cc(=O)oc2c1 (centres unmarked) [Ac-Lys(Ac.)-AMC, Ac-Lys(ε-acetyl)-AMC, reference compound] |  | Undetectable |  | Undetectable | significant deacetylation | Activity (HDAC6): 1.0 pmol/min/µg; Activity (SIRT2): 0.016 pmol/min/µg
2 | Ac-Arg-His-Lys-Lys(ε-acetyl)-AMC (Ac-RHKK(Ac)-{AMC}; SMILES CC(=O)NCCCC[C@H](NC(=O)[C@H](CCCCN)NC(=O)[C@H](Cc1c[nH]cn1)NC(=O)[C@H](CCCNC(=N)N)NC(C)=O)C(=O)Nc1ccc2c(C)cc(=O)oc2c1) [Ac-RHKK(Ac)-AMC, p53 peptide fluorogenic deacetylase substrate, Cat. # BML-KI177, reference compound] |  |  | Ac-RHKK(Ac)-AMC/0.052 pmol/min/μg |  |  | 
3 | CC(=O)N[C@@H](CCCCNC(=O)CCC(=O)O)C(=O)Nc1ccc2c(C)cc(=O)oc2c1 [Compound 1, N—(N^α-acetyl-L-Lysine(N^ε-succinyl))-AMC] |  | Undetectable | Undetectable | Undetectable | no significant desuccinylation | Activity (pmol/min/μg) (HDAC6): Undetectable; Activity (pmol/min/μg) (SIRT2): Undetectable

Further lines, with some results ahead:

Row | Activity (SIRT6) | Activity (pmol/min/μg) (SIRT4) | Activity (pmol/min/μg) (SIRT6) | Molecule | Activity (pmol/min/μg) (HDAC4) | Intracellular desuccinylation/deacetylation of substrate (HeLa cells) | also measured
4 | 0.074 pmol/min/µg |  |  | CCCCCCCCCCCCCC(=O)NCCCC[C@H](NC(C)=O)C(=O)Nc1ccc2c(C)cc(=O)oc2c1 [Compound 4, N—(N^α-acetyl-L-Lysine(N^ε-myristoyl))-AMC] |  |  | 
5 | 0.006 pmol/min/µg |  |  | COC(=O)CCC(=O)NCCCC[C@H](NC(C)=O)C(=O)Nc1ccc2c(C)cc(=O)oc2c1 [Compound 5, N—(N^α-acetyl-L-Lysine(N^ε-methyl succinyl))-AMC] |  |  | 

From patent US10920265B2, “Compounds and methods for detection of enzymes that remove methyl succinyl groups from epsilon-amino lysine moieties” (Enzo Life Sciences, Inc., priority 2011, dated 2021)
